# Measured values taken from patent US20170348306A1, “METHODS OF TREATING CANCER” (GLAXOSMITHKLINE LLC, priority 2011, published 2017).
# How the values were obtained:
# Assay in all cases: Cell proliferation assay (6 days, CellTiter-Glo)
# Format in all cases: cell-based
# SU-DHL-8 = conditions: Homo sapiens, 144 h, DLBCL, EZH2 WT, read-out: AVERAGE GROWTH IC50
# Excerpt: (§1) Thus, Example 22 and Table 6 better reflect the inhibition of HZH2 inhibitors on cell lines, e.g. the lymphoma cell lines. DLBCL cell lines were the most sensitive to EZH2 inhibition (FIG. 11a). […] Evaluation of GSK126 in additional lymphoma cell lines and extensive genomic and epigenomic characterization will be required to fully elucidate the determinants of sensitivity among lymphoma subtypes.
# (§2) Biochemical assays utilized the 5-member PRC2 complex (human Flag-EZH2, EED, SUZ12, AEBP2, RbAp48) containing either WT or mutant EZH2, [^3H-]SAM and the indicated peptide substrate; reactions were incubated for 30 minutes. Global histone modification levels were determined by ELISA or western blot methods using antibodies specific for total histone H3, H3K27me1, H3K27me2, or H3K27me3. Cell proliferation and Caspase-3/7 activity were assessed using CellTiter-Glo and Caspase-Glo 3/7 (Promega), respectively. Gene expression profiling was conducted using Affymetrix Human Genome U133 Plus 2.0 microarrays. Differentially-expressed probe sets were determined by fitting the data to a linear model using the limma statistical package (http://www.bioconductor.org) and carrying out pair-wise contrasts of treated versus control. Significant probe sets were filtered for detection (log2 signal threshold of 8), an average fold-change >2 or <−2, or >1.5 or <−1.5, where indicated, with p-values adjusted for multiple testing correction by FDR (Benjamini Hochberg)<0.1. H3K27me3 ChIP reads were aligned using Bowtie (56). H3K27me3 enrichment peaks were identified using SICER (57) with optimized parameters. A custom PERL script was utilized to quantify the average basal H3K27me3 ChIP-seq tag density across gene sets. All in vivo studies were conducted after review by the Institutional Animal Care and Use Committee at GSK and in accordance with the GSK Policy on the Care, Welfare and Treatment of Laboratory Animals. GSK126 and vehicle were administered to mice intraperitoneally. Two-tailed t-tests were conducted assuming two samples of equal variance.
# (§3) The optimal cell seeding was determined empirically for all cell lines by examining the growth of a wide range of seeding densities in a 384-well format to identify conditions that permitted proliferation for 6 days. […] Plates were incubated for 6 days at 37° C. in 5% CO2. Cells were then lysed with CellTiter-Glo (Promega) and chemiluminescent signal was detected with a TECAN Safire2 microplate reader. In addition, an untreated plate of cells was harvested at the time of compound addition (T0) to quantify the starting number of cells. CTG values obtained after the 6 day treatment were expressed as a percent of the T0 value and plotted against compound concentration.
# HD-MY-Z = conditions: Homo sapiens, 144 h, HODGKIN'S, EZH2 WT, read-out: AVERAGE GROWTH IC50
# Excerpt: as §1, §2, §3
# WILL-2 = conditions: Homo sapiens, 144 h, DLBCL, EZH2 WT, read-out: AVERAGE GROWTH IC50
# Excerpt: as §1, §2, §3
# RI-1 = conditions: Homo sapiens, 144 h, MCL, EZH2 WT, read-out: AVERAGE GROWTH IC50
# Excerpt: as §1, §2, §3
# Farage = conditions: Homo sapiens, 144 h, DLBCL, EZH2 D185H (HET), read-out: AVERAGE GROWTH IC50
# Excerpt: as §1, §2, §3
# BC-3 = conditions: Homo sapiens, 144 h, PEL, AIDS-BCBL, EZH2 D185H (HET), read-out: AVERAGE GROWTH IC50
# Excerpt: as §1, §2, §3
# DB = conditions: Homo sapiens, 144 h, DLBCL, EZH2 Y641N (HET), read-out: AVERAGE GROWTH IC50
# Excerpt: as §1, §2, §3
# CA46 = conditions: Homo sapiens, 144 h, BURKITT, EZH2 D185H (HET), read-out: AVERAGE GROWTH IC50
# Excerpt: as §1, §2, §3
# MC116 = conditions: Homo sapiens, 144 h, B-NHL, EZH2 WT, read-out: AVERAGE GROWTH IC50
# Excerpt: as §1, §2, §3
# BC-1 = conditions: Homo sapiens, BC1, 144 h, AIDS-BCBL, EZH2 WT, read-out: AVERAGE GROWTH IC50
# Excerpt: as §1, §2, §3
# RPMI-6666 = conditions: Homo sapiens, 144 h, HODGKIN'S, EZH2 WT, read-out: AVERAGE GROWTH IC50
# Excerpt: as §1, §2, §3
# SU-DHL-16 = conditions: Homo sapiens, 144 h, B-NHL, EZH2 D185H (HET), read-out: AVERAGE GROWTH IC50
# Excerpt: as §1, §2, §3
# U-698-M = conditions: Homo sapiens, 144 h, B-NHL, EZH2 WT, read-out: AVERAGE GROWTH IC50
# Excerpt: as §1, §2, §3
# Daudi = conditions: Homo sapiens, 144 h, BURKITT, EZH2 WT, read-out: AVERAGE GROWTH IC50
# Excerpt: as §1, §2, §3
# WSU-DLCL2 = conditions: Homo sapiens, WSUDLCL2, 144 h, DLBCL, EZH2 Y641F (HET), read-out: AVERAGE GROWTH IC50
# Excerpt: as §1, §2, §3
# WSU-FSCCL = conditions: Homo sapiens, 144 h, FL, EZH2 D185H (HET), read-out: AVERAGE GROWTH IC50
# Excerpt: as §1, §2, §3
# RL = conditions: Homo sapiens, 144 h, DLBCL, EZH2 Y641N, D185H (HET), read-out: AVERAGE GROWTH IC50
# Excerpt: as §1, §2, §3
# DG-75 = conditions: Homo sapiens, 144 h, BURKITT, EZH2 WT, read-out: AVERAGE GROWTH IC50
# Excerpt: as §1, §2, §3
# NU-DUL-1 = conditions: Homo sapiens, 144 h, B-NHL, EZH2 WT, read-out: AVERAGE GROWTH IC50
# Excerpt: as §1, §2, §3
# L-428 = conditions: Homo sapiens, 144 h, HODGKIN'S, EZH2 Y641S (HET), read-out: AVERAGE GROWTH IC50
# Excerpt: as §1, §2, §3
smiles,measurement,setting,value
CC[C@H](C)n1cc(C)c2c(C(=O)NCc3c(C)cc(C)[nH]c3=O)cc(-c3ccc(N4CCNCC4)nc3)cc21 [GSK126],IC50,SU-DHL-8,3.19 µM
same,IC50,HD-MY-Z,10.7 µM
same,IC50,WILL-2,27.5 µM
same,IC50,RI-1,7.66 µM
same,IC50,Farage,1.72 µM
same,IC50,BC-3,2.22 µM
same,IC50,DB,0.861 µM
same,IC50,CA46,6.58 µM
same,IC50,MC116,10.2 µM
same,IC50,BC-1,8.29 µM
same,IC50,RPMI-6666,1.43 µM
same,IC50,SU-DHL-16,3.28 µM
same,IC50,U-698-M,5.6 µM
same,IC50,Daudi,1.27 µM
same,IC50,WSU-DLCL2,0.134 µM
same,IC50,WSU-FSCCL,12 µM
same,IC50,RL,4.73 µM
same,IC50,DG-75,3.25 µM
same,IC50,NU-DUL-1,17.1 µM
same,IC50,L-428,4.7 µM
